From patent publication US20230026259A1, “CA2 COMPOSITIONS AND METHODS FOR TUNABLE REGULATION” (Obsidian Therapeutics, Inc., priority 2019, published 2023)

Assays:
[1] = Plasma concentration of acetazolamide after single and repeated oral doses; type: in vivo, mice; settings: oral 200 mg/kg, up to 100 hr
[2] = test system: Activated T cells from human donor; experiment: Cell surface CAR expression of CA2 regulated CAR constructs (CD19-Fc staining); type: cell-based; settings: for CAR regulation compared between ligands: T cells, 10 μM ligand overnight, day 7 and 9
Method: CA2 DD described herein were operably linked to CARs to generate tunable CAR constructs. Activated T cells from human donor were transduced with 10 μL of lentivirus for indicated constructs. […] Cell surface CAR expression was detected the following day by staining the cells with 10 ug/mL CD19-Fc followed by an anti-human-BV421 conjugated secondary antibody. Histograms were plotted from a live cell gate. Similar experiments were also performed at day 8 and the cells were harvested at day 9. The data are shown in Table 20 as percentage CAR positive cells. The stabilization ratio was also calculated and is included in Table 20 as SR.
Activated T cells from human donor were transduced with 10 μL of lentivirus for indicated constructs. […] Cell surface CAR expression was detected the following day by staining the cells with 10 ug/mL CD19-Fc followed by an anti-human-BV421 conjugated secondary antibody. The percent of ligand induced CAR+ cells are plotted from a live cell gate relative to vehicle treated negative control cells.

[3] = test system: NIH3T3 cells; experiment: Dose response of saturation library constructs to Acetazolamide or Celecoxib, GFP MFI by FACS; type: cell-based; settings: Acetazolamide vs Celecoxib, 24 hours
Excerpt: The MFI values obtained with Acetazolamide were much higher than the MFIs obtained with Celecoxib treatment.

[4] = test system: human primary T cells; experiment: IL15-dependent expansion: T cell numbers and CD4/CD8 ratio by flow cytometry; type: cell-based; settings: continuous Acetazolamide in culture, 10 days
Method: To test IL15-dependent expansion, beads were removed on day 10 and cells were washed. […] The T cell numbers (Table 30) and the change in CD4/CD8 ratio (Table 31) were determined by flow cytometry.

[5] = test system: T cells; experiment: CD40L expression of CA2 regulated CD40L constructs in T cells by FACS (dose response, time course); type: cell-based; settings: 24 hours
Excerpt: CD40L constructs regulated by Carbonic anhydrase DDs were generated and cloned into lentiviral vectors. Purified T cells were thawed and cultured with aCD3 aCD28 Dynabeads (in the ratio of 3 beads to 1 T cell).
The constructs were transduced in T cells the next day. […]

[6] = Body weights after repeated daily doses of acetazolamide
Method: Body weights were measured for up to 12 days post daily repeated doses on days 0-4 and 8-11 (data not shown).
Dose responsiveness of OT-002175 was tested by measuring total flux in mice receiving repeated ligand dosing for up to 32 days post tumor implant (data not shown).

[7] = CD4+ T cells with OT-001990, Acetazolamide 0.01 μM
[8] = CD4+ T cells with OT-001990, Acetazolamide 0.2 μM
[9] = CD4+ T cells with OT-001990, Acetazolamide 0.8 μM
[10] = CD4+ T cells with OT-001990, Acetazolamide 3.1 μM
[11] = CD4+ T cells with OT-001990, Acetazolamide 12.5 μM
[12] = CD4+ T cells with OT-001990, Acetazolamide 50 μM
[13] = CD8+ T cells with OT-001990, Acetazolamide 0.01 μM
[14] = CD8+ T cells with OT-001990, Acetazolamide 0.05 μM
[15] = CD8+ T cells with OT-001990, Acetazolamide 0.2 μM
[16] = CD8+ T cells with OT-001990, Acetazolamide 0.8 μM
[17] = CD8+ T cells with OT-001990, Acetazolamide 3.1 μM
[18] = CD8+ T cells with OT-001990, Acetazolamide 12.5 μM
[19] = CD8+ T cells with OT-001990, Acetazolamide 50 μM

For `CC(=O)Nc1nnc(S(N)(=O)=O)s1` [Acetazolamide, reference compound], which “daily 1 hr Cmax values after repeated doses” value [1] is on record?
The value was “do not elevate daily 1 hr Cmax values”.

And the “CAR regulation compared between ligands” value [2]?
The value was “Greater CAR regulation”.

What about the “MFI values obtained with one ligand compared with the other” value [3] of the same compound?
Its value is “much higher”.

What about the T cell expansion [4] of the same compound?
Its T cell expansion is 3.6 fold.

What about the “CD40L MFI” value [5, 7] of the same compound?
Its value is 112.

What about the “Percentage CD40L positive cells” value [5, 7] of the same compound?
Its value is 4.13%.

And the “Percentage CD40L positive cells” value ([5]; CD4+ T cells with OT-001990, Acetazolamide 0.05 μM)?
The value was 5.44%.

And the “CD40L MFI” value [5, 8]?
Its value is 185.

And the “Percentage CD40L positive cells” value [5, 8]?
Its value is 10.3%.

What about the “CD40L MFI” value [5, 9] of the same compound?
Its value is 481.

What about the “Percentage CD40L positive cells” value [5, 9] of the same compound?
Its value is 45.6%.

And the “CD40L MFI” value [5, 10]?
The value was 840.

And the “Percentage CD40L positive cells” value [5, 10]?
Its value is 69.3%.

What about the “CD40L MFI” value [5, 11] of the same compound?
The value was 2783.

And the “Percentage CD40L positive cells” value [5, 11]?
The value was 90.3%.

What about the “CD40L MFI” value [5, 12] of the same compound?
The value was 3728.

And the “Percentage CD40L positive cells” value [5, 12]?
The value was 91.1%.

And the “CD40L MFI” value [5, 13]?
The value was 105.

And the “Percentage CD40L positive cells” value [5, 13]?
The value was 0.59%.

And the “CD40L MFI” value [5, 14]?
Its value is 104.

And the “Percentage CD40L positive cells” value [5, 14]?
The value was 0.44%.

What about the “CD40L MFI” value [5, 15] of the same compound?
The value was 136.

What about the “Percentage CD40L positive cells” value [5, 15] of the same compound?
The value was 1.48%.

What about the “CD40L MFI” value [5, 16] of the same compound?
Its value is 307.

And the “Percentage CD40L positive cells” value [5, 16]?
Its value is 25.2%.

And the “CD40L MFI” value [5, 17]?
The value was 380.

And the “Percentage CD40L positive cells” value [5, 17]?
Its value is 41.2%.

What about the “CD40L MFI” value [5, 18] of the same compound?
Its value is 1599.

What about the “Percentage CD40L positive cells” value [5, 18] of the same compound?
Its value is 77.2%.

And the “CD40L MFI” value [5, 19]?
Its value is 2184.

And the “Percentage CD40L positive cells” value [5, 19]?
Its value is 80.7%.

What about the “effects on body weight in efficacy study” value ([6]; 30, 100 and 200 mg/kg acetazolamide) of the same compound?
The value was “comparable effects on body weight”.

And the “body weight changes from dosing” value ([6]; oral 200 mg/kg, daily repeated doses on days 0-4 and 8-11)?
The value was “begin to level off by the end of the first week of daily doses”.

What does the source list for `Cc1onc(-c2ccccc2)c1-c1ccc(S(N)(=O)=O)cc1` [Valdecoxib]?
regulation of CAR expression by titrations of Valdecoxib ([2]; T cells day 8, Valdecoxib starting at 10 μM diluting 3-fold, overnight): Little to no ligand dependent regulation of CAR; CAR regulation compared between ligands [2]: regulation was more evident at day 7
